Measured values published in ChEMBL document CHEMBL1143799, “Synthesis and primary cytotoxicity evaluation of new imidazo[2,1-b]thiazole derivatives” (2007).

Tests used:
Assay type in all cases: functional
HCC 2998 = experiment: Growth inhibition of human HCC2998 cells after 48 hrs by SRB protein assay; conditions: HCC 2998, 48 h
SK-MEL-5 = experiment: Growth inhibition of human SK-MEL-5 cells after 48 hrs by SRB protein assay; conditions: SK-MEL-5, 48 h
MDA-MB-435 = experiment: Growth inhibition of human MDA-MB-435 cells after 48 hrs by SRB protein assay; conditions: MDA-MB-435, 48 h
COLO 205 = experiment: Growth inhibition of human COLO205 cells after 48 hrs by SRB protein assay; conditions: COLO 205, 48 h
OVCAR-5 = experiment: Growth inhibition of human OVCAR5 cells after 48 hrs by SRB protein assay; conditions: OVCAR-5, 48 h
HCT-116 = experiment: Growth inhibition of human HCT116 cells after 48 hrs by SRB protein assay; conditions: HCT-116, 48 h
M14 = experiment: Growth inhibition of human M14 cells after 48 hrs by SRB protein assay; conditions: M14, 48 h
MCF7 = experiment: Growth inhibition of human MCF7 cells after 48 hrs by SRB protein assay; conditions: MCF7, 48 h
RXF 393 = experiment: Growth inhibition of human RXF393 cells after 48 hrs by SRB protein assay; conditions: RXF 393, 48 h
RPMI-8226 = experiment: Growth inhibition of human RPMI8226 cells after 48 hrs by SRB protein assay; conditions: RPMI-8226, 48 h
UACC-62 = experiment: Growth inhibition of human UACC62 cells after 48 hrs by SRB protein assay; conditions: UACC-62, 48 h
SK-OV-3 = experiment: Growth inhibition of human SK-OV-3 cells after 48 hrs by SRB protein assay; conditions: SK-OV-3, 48 h
IGROV-1 = experiment: Growth inhibition of human IGROV1 cells after 48 hrs by SRB protein assay; conditions: IGROV-1, 48 h
KM12 = experiment: Growth inhibition of human KM12 cells after 48 hrs by SRB protein assay; conditions: KM12, 48 h
SF-539 = experiment: Growth inhibition of human SF539 cells after 48 hrs by SRB protein assay; conditions: SF-539, 48 h
SW-620 = experiment: Growth inhibition of human SW620 cells after 48 hrs by SRB protein assay; conditions: SW-620, 48 h
NCI-H522 = experiment: Growth inhibition of human NCI-H522 cells after 48 hrs by SRB protein assay; conditions: NCI-H522, 48 h
SN12C = experiment: Growth inhibition of human SN12C cells after 48 hrs by SRB protein assay
BT-549 = experiment: Growth inhibition of human BT549 cells after 48 hrs by SRB protein assay; conditions: BT-549, 48 h
Hs-578T = experiment: Growth inhibition of human HS578T cells after 48 hrs by SRB protein assay
PC-3 = experiment: Growth inhibition of human PC3 cells after 48 hrs by SRB protein assay; conditions: PC-3, 48 h
OVCAR-3 = experiment: Growth inhibition of human OVCAR-3 cells after 48 hrs by SRB protein assay; conditions: OVCAR-3, 48 h
U-251 = experiment: Growth inhibition human U251 of cells after 48 hrs by SRB protein assay; conditions: U-251, 48 h
UACC-257 = experiment: Growth inhibition of human UACC257 cells after 48 hrs by SRB protein assay; conditions: UACC-257, 48 h
OVCAR-8 = experiment: Growth inhibition of human OVCAR8 cells after 48 hrs by SRB protein assay; conditions: OVCAR-8, 48 h
MDA-MB-231 = experiment: Growth inhibition of MDA-MB-231 cells after 48 hrs by SRB protein assay; conditions: Homo sapiens, MDA-MB-231, 48 h
A549 = experiment: Growth inhibition of human A549 cells after 48 hrs by SRB protein assay; conditions: A549, 48 h
UO-31 = experiment: Growth inhibition of human UO31 cells after 48 hrs by SRB protein assay; conditions: UO-31, 48 h
DU-145 = experiment: Growth inhibition of human DU145 cells after 48 hrs by SRB protein assay; conditions: DU-145, 48 h
SK-MEL-2 = experiment: Growth inhibition of human SK-MEL-2 cells after 48 hrs by SRB protein assay; conditions: SK-MEL-2, 48 h
MOLT-4 = experiment: Growth inhibition of human MOLT4 cells after 48 hrs by SRB protein assay; conditions: MOLT-4, 48 h
CAKI-1 = experiment: Growth inhibition of human CAKI1 cells after 48 hrs by SRB protein assay; conditions: CAKI-1, 48 h
NCI-H460 = experiment: Growth inhibition of human NCI-H460 cells after 48 hrs by SRB protein assay; conditions: NCI-H460, 48 h
HT-29 = experiment: Growth inhibition of human HT29 cells after 48 hrs by SRB protein assay; conditions: HT-29, 48 h
ACHN = experiment: Growth inhibition of human ACHN cells after 48 hrs by SRB protein assay
T47D = experiment: Growth inhibition of human T47D cells after 48 hrs by SRB protein assay
NCI-H23 = experiment: Growth inhibition of human NCI-H23 cells after 48 hrs by SRB protein assay; conditions: NCI-H23, 48 h
EKVX = experiment: Growth inhibition of human EKVX cells after 48 hrs by SRB protein assay
SNB-75 = experiment: Growth inhibition of human SNB75 cells after 48 hrs by SRB protein assay; conditions: SNB-75, 48 h

GI50 (HCC 2998): 10 µM | GI50 (SK-MEL-5): 8.91 µM | GI50 (MDA-MB-435): 3.98 µM | GI50 (COLO 205): 35.5 µM | GI50 (OVCAR-5): 50.1 µM | GI50 (HCT-116): 4.57 µM | GI50 (MCF7): 29.5 µM | GI50 (RPMI-8226): 10.2 µM | GI50 (SK-OV-3): 57.5 µM | GI50 (SW-620): 6.46 µM | GI50 (NCI-H522): 22.9 µM | GI50 (BT-549): 12.9 µM | GI50 (PC-3): 13.5 µM | GI50 (OVCAR-3): 15.8 µM | GI50 (U-251): 13.8 µM | GI50 (OVCAR-8): 11.5 µM | GI50 (MDA-MB-231): 16.2 µM | GI50 (A549): 11.5 µM | GI50 (DU-145): 17.8 µM | GI50 (SK-MEL-2): 89.1 µM | GI50 (MOLT-4): 3.47 µM | GI50 (NCI-H460): > 100 µM | GI50 (HT-29): 16.2 µM | GI50 (ACHN): 17 µM | GI50 (T47D): 40.7 µM | GI50 (NCI-H23): 19.5 µM
SMILES: COc1cccc(OC)c1/C=N/NC(=O)Cc1csc2nc(-c3ccc(Br)cc3)cn12
TGI (HCC 2998; read-out: Log TGI (converted)): 34.7 µM | TGI (SK-MEL-5; read-out: Log TGI (converted)): 42.7 µM | TGI (MDA-MB-435; read-out: Log TGI (converted)): 16.2 µM | TGI (COLO 205; read-out: Log TGI (converted)): > 100 µM | TGI (OVCAR-5; read-out: Log TGI (converted)): > 100 µM | TGI (HCT-116; read-out: Log TGI (converted)): 15.8 µM | GI50 (M14): 15.1 µM | TGI (M14; read-out: Log TGI (converted)): 72.4 µM | TGI (MCF7; read-out: Log TGI (converted)): > 100 µM | GI50 (RXF 393): 19.1 µM | TGI (RXF 393; read-out: Log TGI (converted)): 67.6 µM | TGI (RPMI-8226; read-out: Log TGI (converted)): > 100 µM | GI50 (UACC-62): 12 µM | TGI (UACC-62; read-out: Log TGI (converted)): 27.5 µM | TGI (SK-OV-3; read-out: Log TGI (converted)): > 100 µM | GI50 (IGROV-1): 3.98 µM | TGI (IGROV-1; read-out: Log TGI (converted)): 26.9 µM | GI50 (KM12): 8.91 µM | TGI (KM12; read-out: Log TGI (converted)): > 100 µM | GI50 (SF-539): 11.2 µM | TGI (SF-539; read-out: Log TGI (converted)): 24.5 µM | TGI (SW-620; read-out: Log TGI (converted)): 49 µM | TGI (NCI-H522; read-out: Log TGI (converted)): > 100 µM | GI50 (SN12C): 20.9 µM | TGI (SN12C; read-out: Log TGI (converted)): 49 µM | TGI (BT-549; read-out: Log TGI (converted)): 33.9 µM | GI50 (Hs-578T): 11.5 µM | TGI (Hs-578T; read-out: Log TGI (converted)): 45.7 µM | TGI (PC-3; read-out: Log TGI (converted)): 93.3 µM | TGI (OVCAR-3; read-out: Log TGI (converted)): 58.9 µM | TGI (U-251; read-out: Log TGI (converted)): 31.6 µM | GI50 (UACC-257): 24 µM | TGI (UACC-257; read-out: Log TGI (converted)): 97.7 µM | TGI (OVCAR-8; read-out: Log TGI (converted)): 38 µM | TGI (MDA-MB-231; read-out: Log TGI (converted)): 40.7 µM | TGI (A549; read-out: Log TGI (converted)): 38.9 µM | GI50 (UO-31): 60.3 µM | TGI (UO-31; read-out: Log TGI (converted)): > 100 µM | TGI (DU-145; read-out: Log TGI (converted)): 47.9 µM | TGI (SK-MEL-2; read-out: Log TGI (converted)): > 100 µM | TGI (MOLT-4; read-out: Log TGI (converted)): 8.13 µM | GI50 (CAKI-1): 12.6 µM | TGI (CAKI-1; read-out: Log TGI (converted)): 33.9 µM | TGI (NCI-H460; read-out: Log TGI (converted)): > 100 µM | TGI (HT-29; read-out: Log TGI (converted)): > 100 µM | TGI (ACHN; read-out: Log TGI (converted)): 34.7 µM | TGI (T47D; read-out: Log TGI (converted)): > 100 µM | TGI (NCI-H23; read-out: Log TGI (converted)): 52.5 µM | GI50 (EKVX): 17 µM | TGI (EKVX; read-out: Log TGI (converted)): 57.5 µM | GI50 (SNB-75): 24 µM | TGI (SNB-75; read-out: Log TGI (converted)): 66.1 µM
